According to patent US20170095524A1, “METHODS FOR MODULATING CANCER CELLS AND STEM CELLS” (The Scripps Research Institute, priority 2014, published 2017):

Legend:
LIN28 = assay: Western blot of LIN28 levels in P19 cells treated with IGF1R and calpain inhibitors; type: cell-based; conditions: acute treatment (~12 hrs)
Description: FIGS. 4A-4B show regulation of LIN28 levels by RBM3, IGF1R, and calpain. (A) Western blot showing the effect of RBM3 knock-down (siRNA) on LIN28 levels in P19 cells treated at the neurosphere stage with (or without) retinoic acid (RA) to induce neural differentiation. RBM3 knock-down increases LIN28 and blocks the ability of RA to decrease LIN28. (B) Western blots showing reduction of LIN28 in P19 cells following acute treatment (˜12 hrs) with inhibitors of IGF1R and calpain (each of which increases the expression of the dephosphorylated form of RBM3). […] HDAC is a loading control.
FIGS. 7A-7D show results from additional studies of reducing LIN28 levels via synergistic dual inhibitor strategies. (A & B) Graphs of changes in RBM3 and LIN28 expression in P19 cells treated with the IGF1R inhibitor PPP (10 nM), the calpain inhibitor calpeptin (Cpep, 50 μM), and a combination of PPP plus Cpep (A: n=10-14; B: n=20-24). (C) (top panels) Example of Westerns of LIN28 in P19 cells exposed to PPP, Cpep, and PPP+Cpep; (bottom panels) Example of Westerns of LIN28 and RBM3 in samples from P19 cells treated in triplicate with control and Cpep+PPP conditions. (D) Fold change in let-7 family miRNAs and miR-21 in P19 cells treated with PPP+Cpep as measured by qRT-PCR (n=4). All treatments were for 36 hours. […]

RBM3 = assay: 2D Western blot of RBM3 phosphorylation forms in P19 cells after calpain inhibition; type: cell-based
Description: (Top) 2D Western blot of RBM3 in vehicle-treated (DMSO) P19 cells. Red arrows point to exogenously expressed mutant of RBM3 (A4F) with 4 C-term Y to F mutations, and to two phosphorylated endogenous isoforms of RBM3 that differ by a single arginine (Arg). […] A basic spot not present in the control condition appears that corresponds to the pI of dephosphorylated Arg+RBM3, the form of RBM3 that preferentially associates with pre-miRNAs. We further observed that calpain inhibition rescues expression of dephosphorylated RBM3 in pluripotent cells. Calpains are Ca^++-activated cysteine proteases that regulate diverse cellular processes. Calpain's role in pluripotent and cancerous cells prompted us to test whether it regulates the expression of the dephosphorylated form of RBM3 in pluripotent cells (and accounts for the difficulty in expressing non-phosphorylatable mutants in these cells).

Compound	LIN28 levels (Western blot) (LIN28; PPP 10 nM)	LIN28 levels (Western blot) (LIN28; Cpep 50 μM)	RBM3 pI distribution (2D Western); basic spot corresponding to dephosphorylated Arg+RBM3 appears (RBM3; P19 cells incubated with calpain inhibitor vs DMSO vehicle)	levels of a non-phosphorylatable mutant of RBM3 (RBM3; pluripotent P19 cells)	levels of the endogenous dephosphorylated form of RBM3 that binds pre-miRNAs (dephos Arg+) (RBM3; pluripotent P19 cells)
COc1cc([C@@H]2c3cc4c(cc3[C@H](O)[C@H]3COC(=O)[C@@H]23)OCO4)cc(OC)c1OC [picropodophyllin]	reduces LIN28 levels				
CCCC[C@@H](C=O)NC(=O)[C@H](CC(C)C)NC(=O)OCc1ccccc1 [calpeptin]		reduces LIN28 levels	shift in RBM3 pI distribution	increased	increased
